Data published in patent US5041441A, “Method of chemotherapy using 1-phenyl-2-decanoylamino-3-morpholino-1-propanol” (The Regents of the University of Michigan, priority 1988, dated 1991).
Marks after values point to notes of the source that are not given here.

Key:
[1] = system: Ehrlich ascites tumor cells (EATC); experiment: Antitumor activity in mice inoculated i.p. with Ehrlich ascites tumor cells; format: in vivo; details: for 50-day cure (mice) / Solid Tumors at 50 days (mice): 8 mice; for Normal at 60 days / Solid tumors at 60 days: L-threo isomer; for Weight Change after 10 days: mouse, in vivo; for Acute, initial toxicity observation: C18 (stearoyl) homolog, 0.15 mmol/kg on day 1
Method: Male mice of the ICR (Swiss Hsd) strain from Harlan--Sprague Dawley (Indianapolis, Ind.) were injected intraperitoneal with saline containing 2×10^6 Ehrlich ascites tumor cells (EATC) on day 0. […] Treatment began 24 hours later with intraperitoneal injections of saline or inhibitor, either as the acetate salt or as the hydrochloride salt. The inhibitor was dissolved in 40° C. saline and injected at 10 μl/g body weight. In the case of drugs that were difficult to dissolve, e.g. the hydrochlorides, a non-ionic, low toxicity detergent was included to emulsify the drug, making it suitable for injection. Two cages of mice were assigned to each control or experimental group and fed standard lab chow. In almost all cases, the mice were injected daily for a total of 10 doses.
The 1-tailed Student t-test for unpaired samples was used for statistical analysis.
The experimental procedure set forth above was again followed with homologs of PDMP made from fatty acids of 10 to 18 carbon atom length. The compounds were not resolved into D- and L-forms but the threo stereomers were used as the hydrochlorides. All samples were emulsified in Myrj 52 (15 mg/kg).

[2] = system: Ehrlich ascites cells; experiment: Growth of Ehrlich ascites cells in vivo (volume of packed cells); details: for Volume of packed cells / Volume of packed cells, % of controls: treatment begun 3 days after EATC inoculation, 5 injections, killed 1 day later, 100 mg/kg
Method: A suspension of GlcCer was injected into one group of 10 mice inoculated 1 day earlier with EATC as before. Injectable suspensions of GlcCer and galactosylceramide (GalCer) were prepared by mechanical grinding in saline (10 mg/ml) and injected at a dosage of 100 mg/kg. In one experiment, the mice were killed 1 day after the last of eight daily injections and the ascites cells were flushed out of the abdomen with buffered saline and washed.
Treatments were begun 3 days after EATC inoculation. Only 5 injections were given and the mice were killed 1 day later.

[3] = target: T1, glucosyltransferase (EATC enzyme) (Mus musculus, UniProt O88693); experiment: Glucosyltransferase assay, microsomes from EATC; format: biochemical
T1 construct: Microsomes from EATC (0.50 mg protein) required 20 μM PDMP to reduce the glucosyltransferase activity in half; endogenous in cells; host or cells: Ehrlich ascites tumor cells (EATC), microsomes
T1 sequence (O88693 1-394): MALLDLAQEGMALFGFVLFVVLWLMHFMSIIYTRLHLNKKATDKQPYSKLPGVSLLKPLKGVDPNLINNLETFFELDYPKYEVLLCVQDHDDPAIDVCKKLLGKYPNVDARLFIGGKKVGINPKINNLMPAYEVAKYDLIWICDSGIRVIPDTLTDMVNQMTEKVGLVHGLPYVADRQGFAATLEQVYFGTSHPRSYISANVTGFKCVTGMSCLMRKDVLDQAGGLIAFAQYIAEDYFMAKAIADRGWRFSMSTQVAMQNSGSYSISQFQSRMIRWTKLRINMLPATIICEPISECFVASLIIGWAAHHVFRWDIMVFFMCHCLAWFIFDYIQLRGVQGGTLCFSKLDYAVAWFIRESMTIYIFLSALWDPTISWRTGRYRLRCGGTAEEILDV
Method: Evidence that D-threo-PDMP acts to inhibit GlcCer biosynthesis was provided as follows from assay of glucosyltransferase. Microsomes as source of enzyme were prepared by highspeed centrifugation and stored at -70° C. before use. The incubations were at 37° C. for 30 minutes with microsomes, ATP, liposomal octanoyl sphingosine, UDP-[^3 H]glu, Mg^2+, and dithioerythritol. Microsomes from EATC (0.50 mg protein) required 20 μM PDMP to reduce the glucosyltransferase activity in half. The microsomes from normal liver (72 μg protein) required 5 μM D-threo-PDMP. While the EATC enzyme seems to be less sensitive to the inhibitor, the intraperitoneal concentration of inhibitor is initially very high.

[4] = system: Ehrlich ascites cells; details: mice bearing Ehrlich ascites carcinoma cells, injection of glucosylceramide (background); cited from earlier work
[5] = DL-threo hydrochloride in Myrj 52 emulsion, C16 0.15 mmol/kg, six injections
[6] = DL-threo hydrochloride in Myrj 52 emulsion, 0.3 mmol/kg, ten daily injections
[7] = DL-threo hydrochloride in Myrj 52 emulsion, C18 0.15 mmol/kg on day 1 and 0.075 mmol/kg the remaining 9 days

## CCCCCCCCCCCCCCCC(=O)N[C@H](CN1CCOCC1)[C@H](O)c1ccccc1 (relative stereo) [compound 16]
[1]; [5]
  Body Weight Increase at the 10-day point: -1.1 g
  Survival after 10 days: 5/8
  50-day cure (mice): 3
  Solid Tumors at 50 days (mice): 1
[1]; palmitoyl homolog, daily injections in Myrj 52
  Toxicity observation: too toxic to be used more than six times

## CCCCCCCCCCCCCC(=O)N[C@H](CN1CCOCC1)[C@H](O)c1ccccc1 (relative stereo) [compound 14]
[1]; [6]
  Body Weight Increase at the 10-day point: 0.1 g
  50-day cure (mice): 1
  Solid Tumors at 50 days (mice): 4

## galactosylceramide [GalCer]
[2]; Experiment 7, 100 mg/kg
  Stimulation of EATC growth: no stimulation of EATC growth
[2]
  Volume of packed cells: 2.29 ± 1.21 ml/mouse
  Volume of packed cells, % of controls: 84 % of controls

## CCCCCCCCCCCC(=O)N[C@H](CN1CCOCC1)[C@H](O)c1ccccc1 (relative stereo) [compound 12]
[1]; [6]
  Body Weight Increase at the 10-day point: -0.1 g
  50-day cure (mice): 2
  Solid Tumors at 50 days (mice): 2

## CCCCCCCCCC(=O)N[C@@H](CN1CCOCC1)[C@@H](O)c1ccccc1 [L-threo-PDMP, 1-Phenyl-2-Decanoylamino-3-Morpholino-1-Propanol]
[1]; 60-day observation period, 75-150 mg/kg
  Effectiveness in curing the tumors compared with the D-enantiomer: more effective in curing the tumors than the D-enantiomer
[1]; 75-150 mg/kg
  Losses of animals during the initial 10 days of treatment: no losses of animals
[1]; 75-150 mg/kg, 10 days
  Ascites fluid in treated mice: At no time was ascites fluid visible
[1]; 75 mg/kg, 10 days
  Normal at 60 days: 4 # of mice
  Solid tumors at 60 days: 2 # of mice
[1]; 100 mg/kg, 10 days
  Normal at 60 days: 4 # of mice
  Solid tumors at 60 days: 3 # of mice
[1]; 125 mg/kg, 10 days
  Normal at 60 days: 2 # of mice
  Solid tumors at 60 days: 3 # of mice
[1]; 150 mg/kg, 10 days
  Normal at 60 days: 5 # of mice
  Solid tumors at 60 days: 3 # of mice
[1]; at the higher dosages
  Mice in which disappearance of solid tumors was observed: two
[1]; compared with the D-isomer
  Acute toxicity reactions of the mice: distinctly smaller than with the D-isomer
[1]; 75 mg/kg
  Weight Change after 10 days: 3.2 g
[1]; 100 mg/kg
  Weight Change after 10 days: 1.9 g
[1]; 125 mg/kg
  Weight Change after 10 days: 0.8 g
[1]; 150 mg/kg
  Weight Change after 10 days: -0.2 g
[3]; general statement
  Inhibition of ceramide glucosyltransferase: ineffective
[3]; microsomes from EATC
  Inhibition of the EATC enzyme: did not inhibit

## glucosylceramide [GlcCer]
[2]; EATC mice, eight daily injections from day 1, killed 1 day after the last, GlcCer 100 mg/kg, saline controls 3.07 ml
  Packed, centrifuged ascites cells (mean value per mouse): 4.68 mL
[2]; EATC mice, eight daily injections, GlcCer 100 mg/kg, p less than 0.05
  Increase of packed cells over saline-injected controls: 52%
[2]
  Volume of packed cells: 4.13 ± 0.63 ml/mouse
  Volume of packed cells, % of controls: 152 % of controls
[4]
  Increase in the number of cancer cells: greater than 50%

## CCCCCCCCCCCCCCCCCC(=O)N[C@H](CN1CCOCC1)[C@H](O)c1ccccc1 (relative stereo) [compound 18]
[1]
  Acute, initial toxicity observation: high initial weight loss
[1]; listed as C18 homolog
  Acute, initial toxicity observation: absence of an acute, initial toxicity reaction
[1]; [7]
  Body Weight Increase at the 10-day point: 2.5 g
  50-day cure (mice): 6
  Solid Tumors at 50 days (mice): 0

## CCCCCCCCCC(=O)N[C@H](CN1CCOCC1)[C@H](O)c1ccccc1 (relative stereo) [compound 10, 1-Phenyl-2-Decanoylamino-3-Morpholino-1-Propanol]
[1]; [6]
  50-day cure (mice): 5
  Solid Tumors at 50 days (mice): 1
[1]; decanoyl group, 0.3 mmol/kg in Myrj emulsion
  Mice that developed small solid tumors that were later resorbed: two
[1]; dosage of 128 mg/kg, Myrj emulsion
  Long-term cure rate: 50%
